Patent US11214564B2, “Compounds with thymine skeleton for use in medicine” (TECHNISCHE UNIVERSITÄT DRESDEN, priority 2019, dated 2022)
Blank lines part the entries; values can stand above or below the molecule they belong to.

Biological target: HSP27 (Homo sapiens, UniProt P04792)
Assay: Aggregation assay: HSP27 chaperone activity on heat-induced aggregation of citrate synthase
Format: biochemical
Details: compound 10 μM; 1.44 μM CS, 481 nM HSP27, 43° C., 500 nm
Method: To test how small molecules affect the chaperone activity of HSP27, misfolding and aggregation of citrate synthase (CS), a well-known in vitro client protein of HSP27, was measured. Citrate synthase misfolds and aggregates when exposed to heat shock at 43° C. This heat denaturation is prevented or delayed in the presence of HSP27 (CS+HSP27) (Jakob et al. (1993)). […] The samples were incubated at 43° C. and the aggregation behavior of CS was monitored in a spectrometer (PerkinElmer LS55) at a wavelength of 500 nm. Substances inhibiting HSP27's chaperone activity lead to continued denaturation of the client protein and its aggregation in solution. This inhibition correlates with the strength of the interaction between HSP27 and the test substance, which is related to its binding efficiency.
In the reference experiment BVDU (CS+HSP27+BVDU) was tested at a concentration of 750 μM as previously described (Heinrich et al. (2016)).
The compounds according to the invention were tested at a concentration of 10 μM.

HSP27, sequence (P04792 whole entry): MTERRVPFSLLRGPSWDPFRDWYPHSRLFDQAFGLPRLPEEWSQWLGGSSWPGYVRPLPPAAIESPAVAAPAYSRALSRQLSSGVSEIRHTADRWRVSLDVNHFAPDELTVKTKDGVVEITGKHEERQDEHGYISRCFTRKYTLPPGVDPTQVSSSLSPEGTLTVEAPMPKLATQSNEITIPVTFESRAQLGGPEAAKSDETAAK

aggregation value related to the value from reference experiment (CS + HSP27 + BVDU), which was set at 1.0: 0.88
Compound: O=C(Cc1cccc(-c2ccc(Cl)cc2)c1)Nc1ccc(-n2ccc(=O)[nH]c2=O)cc1 [Compound 24, 2-(4′-chloro-[1,1′-biphenyl]-3-yl)-N-(4-(2,4-dioxo-3,4-dihydro-pyrimidin-1(2H)-yl)phenyl) acetamide]

aggregation value related to the value from reference experiment (CS + HSP27 + BVDU), which was set at 1.0: 0.85
Compound: O=C(Cc1cccc(-c2cccc(Cl)c2)c1)Nc1ccc(-n2ccc(=O)[nH]c2=O)cc1 [Compound 26, 2-(3′-chloro-[1,1′-biphenyl]-3-yl)-N-(4-(2,4-dioxo-3,4-dihydro-pyrimidin-1(2H)-yl)phenyl) acetamide]

aggregation value related to the value from reference experiment (CS + HSP27 + BVDU), which was set at 1.0: 0.83
Compound: COc1ccc(-c2cccc(CC(=O)Nc3ccc(-n4ccc(=O)[nH]c4=O)cc3)c2)cc1Cl [Compound 27, 2-(3′-chloro-4′-methoxy-[1,1′-biphenyl]-3-yl)-N-(4-(2,4-dioxo-3,4-dihydro-pyrimidin-1(2H)-yl)phenyl) acetamide]

aggregation value related to the value from reference experiment (CS + HSP27 + BVDU), which was set at 1.0: 0.8
Compound: Cc1ccc(-c2cccc(CC(=O)Nc3ccc(-n4ccc(=O)[nH]c4=O)cc3)c2)cc1Cl [Compound 29, 2-(3′-chloro-4′-methyl-[1,1′-biphenyl]-3-yl)-N-(4-(2,4-dioxo-3,4-dihydro-pyrimidin-1(2H)-yl)phenyl) acetamide]

aggregation value related to the value from reference experiment (CS + HSP27 + BVDU), which was set at 1.0: 0.69
Compound: Cc1cccc(-c2cccc(CC(=O)Nc3ccc(-n4ccc(=O)[nH]c4=O)cc3)c2)c1 [Compound 33, N-(4-(2,4-dioxo-3,4-dihydro-pyrimidin-1(2H)-yl)phenyl)-2-(3′-methyl-[1,1′-biphenyl]-3-yl) acetamide]

aggregation value related to the value from reference experiment (CS + HSP27 + BVDU), which was set at 1.0: 1.8
Compound: O=C(Nc1ccc(Cn2ccc(=O)[nH]c2=O)cc1)c1cccc(-c2ccc(Cl)c(Cl)c2)c1 [Compound 34, 3′,4′-dichloro-N-(4-((2,4-dioxo-3,4-dihydro-pyrimidin-1(2H)-yl)methyl)phenyl)-[1,1′-biphenyl]-3-carboxamide]

aggregation value related to the value from reference experiment (CS + HSP27 + BVDU), which was set at 1.0: 1.55
Compound: O=C(Nc1ccc(Cn2ccc(=O)[nH]c2=O)cc1)c1cccc(-c2cccc(OC(F)(F)F)c2)c1 [Compound 35, N-(4-((2,4-dioxo-3,4-dihydro-pyrimidin-1(2H)-yl)methyl)phenyl)-3′-(trifluoro-methoxy)-[1,1′-biphenyl]-3-carboxamide]

aggregation value related to the value from reference experiment (CS + HSP27 + BVDU), which was set at 1.0: 1.23
Compound: O=C(Nc1ccc(Cn2ccc(=O)[nH]c2=O)cc1)c1cccc(-c2cccc(Cl)c2)c1 [Compound 36, 3′-chloro-N-(4-((2,4-dioxo-3,4-dihydro-pyrimidin-1(2H)-yl)methyl)phenyl)-[1,1′-biphenyl]-3-carboxamide]

aggregation value related to the value from reference experiment (CS + HSP27 + BVDU), which was set at 1.0: 0.91
Compound: COc1ccc(-c2cccc(C(=O)Nc3ccc(Cn4ccc(=O)[nH]c4=O)cc3)c2)cc1Cl [Compound 37, 3′-chloro-N-(4-((2,4-dioxo-3,4-dihydro-pyrimidin-1(2H)-yl)methyl)phenyl)-4′-methoxy-[1,1′-biphenyl]-3-carboxamide]

aggregation value related to the value from reference experiment (CS + HSP27 + BVDU), which was set at 1.0: 0.66
Compound: Cc1cccc(-c2cccc(C(=O)Nc3ccc(-n4ccc(=O)[nH]c4=O)cc3)c2)c1 [Compound 42, N-(4-(2,4-dioxo-3,4-dihydro-pyrimidin-1(2H)-yl)phenyl)-3′-methyl-[1,1′-biphenyl]-3-carboxamide]

Further lines, the molecule ahead of its results:

Compound: Cc1cn(-c2ccc(NC(=O)Cc3cccc(-c4ccc(Cl)cc4)c3)cc2)c(=O)[nH]c1=O [Compound 15, 2-(4′-chloro-[1,1′-biphenyl]-3-yl)-N-(4-(5-methyl-2,4-dioxo-3,4-dihydropyrimidin-1(2H)-yl)phenyl) acetamide]
aggregation value related to the value from reference experiment (CS + HSP27 + BVDU), which was set at 1.0: 1.11

Compound: O=C(Cc1cccc(-c2ccc(Cl)cc2)c1)Nc1ccc(-n2cc(F)c(=O)[nH]c2=O)cc1 [Compound 16, 2-(4′-chloro-[1,1′-biphenyl]-3-yl)-N-(4-(5-fluoro-2,4-dioxo-3,4-dihydro-pyrimidin-1(2H)-yl)phenyl) acetamide]
aggregation value related to the value from reference experiment (CS + HSP27 + BVDU), which was set at 1.0: 1.04

Compound: O=C(Cc1cccc(-c2cccc(OC(F)(F)F)c2)c1)Nc1ccc(-n2cc(Cl)c(=O)[nH]c2=O)cc1 [Compound 17, N-(4-(5-chloro-2,4-dioxo-3,4-dihydro-pyrimidin-1(2H)-yl)phenyl)-2-(3′-(trifluoro-methoxy)-[1,1′-biphenyl]-3-yl) acetamide]
aggregation value related to the value from reference experiment (CS + HSP27 + BVDU), which was set at 1.0: 1.01

Compound: Cc1cc(-n2ccc(=O)[nH]c2=O)ccc1NC(=O)Cc1cccc(-c2ccc(Cl)c(Cl)c2)c1 [Compound 18, 2-(3′,4′-dichloro-[1,1′-biphenyl]-3-yl)-N-(4-(2,4-dioxo-3,4-dihydro-pyrimidin-1(2H)-yl)-2-methyl-phenyl)acetamide]
aggregation value related to the value from reference experiment (CS + HSP27 + BVDU), which was set at 1.0: 1

Compound: O=C(Cc1cccc(-c2cccc(OC(F)(F)F)c2)c1)Nc1ccc(-n2ccc(=O)[nH]c2=O)c(Cl)c1 [Compound 19, N-(3-chloro-4-(2,4-dioxo-3,4-dihydro-pyrimidin-1(2H)-yl)phenyl)-2-(3′-(trifluoro-methoxy)-[1,1′-biphenyl]-3-yl) acetamide]
aggregation value related to the value from reference experiment (CS + HSP27 + BVDU), which was set at 1.0: 0.97

Compound: O=C(Cc1cccc(-c2ccc(Cl)cc2Cl)c1)Nc1ccc(-n2cc(F)c(=O)[nH]c2=O)cc1 [Compound 20, 2-(2′,4′-dichloro-[1,1′-biphenyl]-3-yl)-N-(4-(5-fluoro-2,4-dioxo-3,4-dihydro-pyrimidin-1(2H)-yl)phenyl) acetamide]
aggregation value related to the value from reference experiment (CS + HSP27 + BVDU), which was set at 1.0: 0.96

Compound: O=C(Cc1cccc(-c2ccc(Cl)c(Cl)c2)c1)Nc1ccc(-n2ccc(=O)[nH]c2=O)c(Cl)c1 [Compound 21, N-(3-chloro-4-(2,4-dioxo-3,4-dihydro-pyrimidin-1(2H)-yl)phenyl)-2-(3′,4′-dichloro-[1,1′-biphenyl]-3-yl)acetamide]
aggregation value related to the value from reference experiment (CS + HSP27 + BVDU), which was set at 1.0: 0.94

Compound: COc1cccc(-c2cccc(CC(=O)Nc3ccc(-n4cc(C)c(=O)[nH]c4=O)cc3)c2)c1 [Compound 22, 2-(3′-methoxy-[1,1′-biphenyl]-3-yl)-N-(4-(5-methyl-2,4-dioxo-3,4-dihydro-pyrimidin-1(2H)-yl)phenyl) acetamide]
aggregation value related to the value from reference experiment (CS + HSP27 + BVDU), which was set at 1.0: 0.91

Compound: Cc1cn(-c2ccc(NC(=O)Cc3cccc(-c4ccc(OC(C)C)c(Cl)c4)c3)cc2)c(=O)[nH]c1=O [Compound 23, 2-(3′-chloro-4′-isopropoxy-[1,1′-biphenyl]-3-yl)-N-(4-(5-methyl-2,4-dioxo-3,4-dihydropyrimidin-1(2H)-yl)phenyl) acetamide]
aggregation value related to the value from reference experiment (CS + HSP27 + BVDU), which was set at 1.0: 1.33

Compound: COc1ccc(-c2cccc(CC(=O)Nc3ccc(-n4ccc(=O)[nH]c4=O)cc3F)c2)cc1Cl [Compound 25, 2-(3′-chloro-4′-methoxy-[1,1′-biphenyl]-3-yl)-N-(4-(2,4-dioxo-3,4-dihydro-pyrimidin-1(2H)-yl)-2-fluoro-phenyl)acetamide]
aggregation value related to the value from reference experiment (CS + HSP27 + BVDU), which was set at 1.0: 0.88

Compound: O=C(Cc1cccc(-c2cccc(OC(F)(F)F)c2)c1)Nc1ccc(-n2ccc(=O)[nH]c2=O)cc1F [Compound 28, N-(4-(2,4-dioxo-3,4-dihydro-pyrimidin-1(2H)-yl)-2-fluoro-phenyl)-2-(3′-(trifluoro-methoxy)-[1,1′-biphenyl]-3-yl) acetamide]
aggregation value related to the value from reference experiment (CS + HSP27 + BVDU), which was set at 1.0: 0.82

Compound: COc1ccc(-c2cccc(CC(=O)Nc3ccc(-n4cc(Cl)c(=O)[nH]c4=O)cc3)c2)cc1Cl [Compound 30, N-(4-(5-chloro-2,4-dioxo-3,4-dihydro-pyrimidin-1(2H)-yl)phenyl)-2-(3′-chloro-4′-methoxy-[1,1′-biphenyl]-3-yl)acetamide]
aggregation value related to the value from reference experiment (CS + HSP27 + BVDU), which was set at 1.0: 0.79

Compound: COc1ccc(-c2cccc(CC(=O)Nc3ccc(-n4cc(C)c(=O)[nH]c4=O)cc3)c2)cc1 [Compound 31, 2-(4′-methoxy-[1,1′-biphenyl]-3-yl)-N-(4-(5-methyl-2,4-dioxo-3,4-dihydro-pyrimidin-1(2H)-yl)phenyl) acetamide]
aggregation value related to the value from reference experiment (CS + HSP27 + BVDU), which was set at 1.0: 0.78

Compound: O=C(Cc1cccc(-c2ccc(Cl)c(Cl)c2)c1)Nc1ccc(-n2ccc(=O)[nH]c2=O)cc1F [Compound 32, 2-(3′,4′-dichloro-[1,1′-biphenyl]-3-yl)-N-(4-(2,4-dioxo-3,4-dihydro-pyrimidin-1(2H)-yl)-2-fluoro-phenyl)acetamide]
aggregation value related to the value from reference experiment (CS + HSP27 + BVDU), which was set at 1.0: 0.76

Compound: O=C(Cc1cccc(-c2cccc(OC(F)(F)F)c2)c1)Nc1cccc(-n2ccc(=O)[nH]c2=O)c1 [Compound 39, N-(3-(2,4-dioxo-3,4-dihydro-pyrimidin-1(2H)-yl)phenyl)-2-(3′-(trifluoro-methoxy)-[1,1′-biphenyl]-3-yl) acetamide]
aggregation value related to the value from reference experiment (CS + HSP27 + BVDU), which was set at 1.0: 1.21

Compound: O=C(Cc1cccc(-c2ccc(Cl)c(Cl)c2)c1)Nc1cccc(-n2ccc(=O)[nH]c2=O)c1 [Compound 40, 2-(3′,4′-dichloro-[1,1′-biphenyl]-3-yl)-N-(3-(2,4-dioxo-3,4-dihydro-pyrimidin-1(2H)-yl)phenyl) acetamide]
aggregation value related to the value from reference experiment (CS + HSP27 + BVDU), which was set at 1.0: 1.8

Compound: COc1ccc(-c2cccc(CC(=O)Nc3cccc(-n4ccc(=O)[nH]c4=O)c3)c2)cc1Cl [Compound 41, 2-(3′-chloro-4′-methoxy-[1,1′-biphenyl]-3-yl)-N-(3-(2,4-dioxo-3,4-dihydro-pyrimidin-1(2H)-yl)phenyl) acetamide]
aggregation value related to the value from reference experiment (CS + HSP27 + BVDU), which was set at 1.0: 1.24
